The values below come from patent publication US20030077645A1, “Superfamily receptor chimeras, translocation assay for superfamily receptor ligands, and methods and kits for detecting and characterizing receptor ligands” (priority 2001, published 2003).

For series [1], the system named is GR-RAR chimera. The settings on record: 100 nM ATRA, 6 hours.
Method: (§3) The 1471.1 cell line was used for this transfection study. Cells were maintained in DMEM with 10% characterized fetal calf serum, L-glutamine, and antibiotics. For transient transfections, 2×10^5 cells were resuspended in cold DMEM without serum with the indicated plasmids and incubated on ice for 1 minute. Electroporations were done in an electroporator at 140 V, 3 pulses and 10 msec pulse length followed by a 10 minute recovery on ice. Cells were then plated and allowed to recover overnight in complete media.
(§4) Assay of Receptor Activity. Cells were electroporated with 5 ug pLTRLuc, containing the MMTV LTR, and 0.7 ug pCMV-betaGal with or without 10 ug of the indicated receptor expression vector as described above. Cells were plated in duplicate in 100 mm dishes in DMEM containing 10% charcoal/dextran-treated FCS, as described above, and allowed to recover overnight. The next day, cells were treated with the indicated ligand for 6 hours.
(§5) Transfected cells were treated with the indicated ligand for 6 hours. Fold inductions are shown in the bottom table, and were calculated from the luciferase activity, normalized to beta-galactosidase activity, of ligand induced samples compared to untreated controls.
Series [2] has as its target T1, Endogenous GR (Mus musculus, UniProt P06537).
T1 sequence (P06537 1-792): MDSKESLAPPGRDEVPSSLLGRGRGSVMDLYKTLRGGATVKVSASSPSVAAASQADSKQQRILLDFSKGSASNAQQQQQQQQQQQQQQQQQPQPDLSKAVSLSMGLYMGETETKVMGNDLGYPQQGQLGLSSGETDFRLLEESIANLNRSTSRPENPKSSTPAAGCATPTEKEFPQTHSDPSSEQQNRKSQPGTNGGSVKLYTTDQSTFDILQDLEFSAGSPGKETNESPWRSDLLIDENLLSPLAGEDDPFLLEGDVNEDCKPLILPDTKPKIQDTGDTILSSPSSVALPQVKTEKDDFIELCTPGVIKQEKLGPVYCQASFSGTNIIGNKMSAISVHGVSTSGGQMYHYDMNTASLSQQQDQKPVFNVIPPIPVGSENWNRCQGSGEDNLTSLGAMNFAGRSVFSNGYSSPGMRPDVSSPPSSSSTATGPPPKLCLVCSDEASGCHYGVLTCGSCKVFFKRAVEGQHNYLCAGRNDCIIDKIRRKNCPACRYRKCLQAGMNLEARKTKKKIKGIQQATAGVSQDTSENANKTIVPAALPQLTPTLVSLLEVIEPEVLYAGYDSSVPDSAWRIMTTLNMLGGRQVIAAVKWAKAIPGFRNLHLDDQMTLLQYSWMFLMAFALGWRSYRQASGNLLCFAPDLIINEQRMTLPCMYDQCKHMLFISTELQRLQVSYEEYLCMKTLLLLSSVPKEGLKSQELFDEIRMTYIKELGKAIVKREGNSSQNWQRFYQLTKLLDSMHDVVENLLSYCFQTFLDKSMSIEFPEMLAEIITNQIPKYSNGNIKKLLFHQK
Nature of the series: cell-based. Conditions: read-out: Fold induction (luciferase activity normalized to beta-galactosidase activity, vs untreated control).
Method: as §3, §4, §5

The test system of series [3] is GFP-GR-RAR. The settings on record: 100 nM ligand, 1 hour, mouse mammary adenocarcinoma cells. How it is done:
(§1) Fluorescence Microscopy. For fluorescence microscopy, cells were electroporated with 2 ug GFP-GR-RAR, GFP-GR, or GFP-RAR. […] GFP was excited with a 488 nm laser lines supplied from a air cooled argon laser. GFP emission was monitored between 505 and 590 nm with a pinhole setting of 1.0.
(§2) FIG. 3 is a series of photographs which depict subcellular trafficking of chimeric receptor. Mouse mammary adenocarcinoma cells were transfected with GFP-GR-RAR (panels A, B, C), GFP-GR (panels D, E, F), or GFP-RAR (panels G, H, I).

In series [4] the target is T2, GFP-RAR (wild type RAR) (Homo sapiens, UniProt P10276).
T2 sequence (P10276 1-462): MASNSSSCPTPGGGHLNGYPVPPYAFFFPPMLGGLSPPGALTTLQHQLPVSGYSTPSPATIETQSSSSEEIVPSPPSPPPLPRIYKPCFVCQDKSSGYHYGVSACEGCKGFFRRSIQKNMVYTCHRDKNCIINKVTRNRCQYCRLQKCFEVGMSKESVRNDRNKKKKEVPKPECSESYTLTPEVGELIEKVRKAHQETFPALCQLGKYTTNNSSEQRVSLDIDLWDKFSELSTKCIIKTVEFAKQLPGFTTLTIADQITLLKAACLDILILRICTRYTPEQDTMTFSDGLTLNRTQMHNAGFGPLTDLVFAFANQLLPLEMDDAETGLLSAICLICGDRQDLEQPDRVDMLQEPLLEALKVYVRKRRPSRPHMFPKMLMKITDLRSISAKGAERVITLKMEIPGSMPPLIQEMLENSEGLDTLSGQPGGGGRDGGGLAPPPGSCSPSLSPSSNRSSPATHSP
The settings on record: 100 nM ligand, 1 hour, mouse mammary adenocarcinoma cells. As to the method:
as §1, §2

In the case of `CC1=C(/C=C/C(C)=C/C=C/C(C)=C/C(=O)O)C(C)(C)CCC1` [ATRA, all-trans retinoic acid], the “Fold induction (luciferase activity normalized to beta-galactosidase activity, vs untreated control)” value in series [1] was 18.6. Also, the fold induction at 0.1 µM in series [2] was determined as 1.27. In addition, in series [3], the “Subcellular distribution of GR-RAR in response to ligand” value is given as “translocated to the nucleus”. For the same compound, in series [4], the “Subcellular distribution of wild type RAR in response to ligand” value is given as “always nuclear”.
